From US20250082781A1, “METHODS OF LOWERING BLOOD GLUCOSE AND TREATING TYPE 2 DIABETES BY ACTIVATION OF PDE4D3” (Salk Institute for Biological Studies, priority 2021, published 2025)

Assays:
[1] = tested on: HSL phosphorylation at S660; assay: Western blot of pHSL-S660 in 3T3-L1 adipocytes; format: cell-based; details: basal and ISO-stimulated, FGF1 100 ng/ml
Experimental: (§1) Tissues were lysed in cold lysis buffer (50 mM Tris, pH 7.5, 150 mM NaCl, 1% NP40, 0.5% NaDoc, 0.1% SDS, 5% glycerol, 1 mM EDTA, protease and phosphatase inhibitors (complete and PhosSTOP (Roche)) by homogenization by bead-beater for 30 s. Samples were cleared for 10 min at 18,000 g at 4° C. and the middle clear phase was transferred to new tubes. A second 30 min centrifugation was performed and the middle clear phase was transferred to new tubes. Five ul protein extract was used for BCA assay to determine protein concentration. Samples were boiled in Laemmli buffer. SDS-PAGE and blotting were performed using gradient gels and Trans-Blot Turbo Transfer System (Bio-Rad). Antibodies used were PDE4D (12918-1-AP, Proteintech), pHSL-660 (4126S, Cell signaling), HSL (4107S, Cell Signaling), tubulin (CP06, Millipore Sigma), and GFP (A01388, GenScript). PDE4D3-pS44 phospho-specific antibody was generated using PDE4D3-S44 FRRHpSWISFDVDNGTSAGR peptide (SEQ ID NO: 20) (Mackenzie et al., 2002) by Pocono Rabbit Farm, using 70-day rabbit antibody production protocol and purified via affinity purification. Primary antibodies were incubated for 2 h at room temperature (RT) or overnight (ON) at 4° C. Blots were developed using SuperSignal West Pico PLUS Chemiluminescent Substrate (ThermoFisher Scientific) and imaged with BioRad GelDoc system.

adipose tissue explants = assay: Ex vivo lipolysis in adipose explants of treated mice; set-up: species or system mouse
Experimental: For in vitro lipolysis assay, cells were washed with PBS and media were changed to full growth media 1 day before experiment. Cells were serum starved for 2 h and placed in KRBH buffer (30 mM HEPES, 120 mM NaCl, 4 mM KH2PO4, 1 mM MgSO4, 0.75 mM CaCl2), and 10 mM NaHCO3) with 2% fatty acid free BSA and 5 mM glucose. FGF1 was added 10 min before induction of lipolysis with 100 nM isoprotenol (ISO). Inhibitors were added 30 min prior to FGF1 treatment unless otherwise noted. Media were collected and cells were lysed in protein extraction buffer. FFAs were measured in the media using a commercial kit (Wako-NEFAHR2) and normalized to protein concentration. For ex vivo lipolysis, the assay was modified from a published protocol (Funicello et al., 2007). Briefly, approximately 0.1 gram of adipose tissue was excised, weighed and kept in cold PBS until treatment and control tissues were collected. Tissues were cut into small pieces and incubated in same KRBH buffer as described above for 4 h. FFAs were measured and normalized by the explant weights.

serum FFA levels = assay: Serum FFA levels in DIO mice; format: in vivo, mouse; details: FGF1 0.5 mg/kg s.c.
Experimental: (§2) Mice were kept in 12 h light/dark cycle in a temperature-controlled environment. Mice had free access to food and water unless noted otherwise. C57/B6 mice background was used unless noted otherwise. C57BL/6J and ob/ob (000632-B6. Cg-Lepob/J) male mice were obtained from Jackson Laboratory. PDE4D knock-out mice (034588-UCD) were obtained from MMRRC. For diet-induced obesity (DIO) studies, mice were fed a high fat diet (HFD) (60% fat, F3282; Bio-Serv) for minimum of 12 weeks to induce insulin resistance when diet-induced obese model is used. Insulin levels and blood glucose levels were monitored to confirm insulin resistance. To generate adipose-specific FGFR1 deletion, adiponectin-cre mice (B6; FVB-Tg (Adipoq-cre)1Evdr/J; Stock: 010803) were crossed to Fgfr1 flox/flox (B6.129S4-Fgfr1tm5.1Sor/J; Stock: 00767) mice. For AAV mediated expression of target proteins in adipose tissue, 5×10E+11 genomic copies of AAV were injected via tail vein or retro-orbital route.
(§3) Recombinant FGF1 (rFGF1) was dissolved in phosphate-buffered saline (PBS) at a concentration of 0.2 mg/ml and was injected subcutaneously at a 0.5 mg kg^−1 dose. Blood glucose was monitored at indicated time points after injection. For initial measurements (2-4 h) food was removed after injection to exclude any indirect effects stemming from anorexigenic effects of FGF1. PDE4 inhibitor roflumilast stock in DMSO was diluted at 1 mg/ml in 30% captisol, pH 10 and delivered to mice thorough oral gavage at 5 mg kg^−1 dose. PDE3 inhibitor cilostamide stock in DMSO was diluted at 2 mg/ml in 30% captisol and delivered through intraperitoneal injection at 10 mg kg^−1 dose.

blood glucose levels = assay: Blood glucose levels in ob/ob mice; format: in vivo, mouse
Experimental: as §2, §3

pyruvate carboxylase = assay: Hepatic pyruvate carboxylase (Pcx) activity assay; format: in vivo, mouse; details: HFD-fed adR1WT mice, FGF1 0.5 mg/kg
Experimental: Pcx activity was determined by malate dehydrogenase coupling method originally reported by Payne et al. (Payne and Morris, 1969). Briefly, mice were sacrificed by decapitation. Liver samples were rapidly frozen in liquid nitrogen within 5 seconds of excision designed to avoid loss of hepatic acetyl-CoA levels. Frozen liver samples were pulverized on dry ice and approximately 100 mg of tissues were homogenized with TissueLyzer in Pcx activity assay buffer (50 mM Tris pH8, 10 mM MgCl2, 10 mM NaHCO3). Homogenates were cleared by centrifugation at 14000 rpm for 10 minutes. Cleared supernatants were diluted in Pcx activity assay buffer to approximately 1 μg/ul. Approximately 5 μg protein was loaded onto 96-well plates and the total volume was brought up to 20 ul by Pcx activity assay buffer. Absorbance at 340 nm was monitored every 9 seconds at 37° C. immediately after the addition of 80 ul Pcx reaction buffer (50 mM Tris pH8, 10 mM MgCl2, 10 mM NaHCO3, 6.25 mM ATP, 0.125 mM NADH, 2.5 mM pyruvate, malate dehydrogenase 0.025 U/ml in Pcx activity assay buffer). Pcx activity was determined as the loss of absorbance at 340 nm over time normalized to protein concentration.

[2] = tested on: HSL phosphorylation at S660; assay: Western blot of pHSL-S660 in gWAT after injection; format: in vivo, mouse; details: 30 min after FGF1 injection 0.5 mg/kg
Experimental: as §1

PDE4D = assay: Western blot of PDE4D phosphorylation in 3T3-L1 adipocytes; format: cell-based
Experimental: as §1

Substance: FGF1: Recombinant fibroblast growth factor 1 protein, dissolved in PBS, injected subcutaneously
- HSL phosphorylation at S660 (pHSL) [1]: suppressed HSL phosphorylation at S660
- lipolysis in brown adipose tissue (adipose tissue explants; BAT explants, chow-fed mice, 6 h after FGF1 0.5 mg/kg): did not affect lipolysis in brown adipose tissue
- FGF1 suppression of lipolysis in adipose explants under PDE4 inhibition (adipose tissue explants; DIO mice gavaged with PDE4 inhibitor 1 h prior to FGF1 injection): blocked the ability of FGF1 to suppress lipolysis
- ex vivo lipolysis (adipose tissue explants; gWAT and iWAT explants, DIO adR1WT vs adR1KO, 2 h after FGF1 0.5 mg/kg): suppressed
- serum FFA levels (serum FFA levels; overnight fasted DIO adR1KO mice): failed to affect adR1KO mice
- reduction of serum FFA levels (serum FFA levels; overnight fasted DIO adR1WT mice, 30 min): ~30%
- blood glucose, FGF1 co-administered with atglistatin (blood glucose levels; ad lib fed ob/ob mice, FGF1 0.5 mg/kg + atglistatin 120 mg/kg): no additive effects
- blood glucose (blood glucose levels; ad lib fed ob/ob mice, FGF1 0.5 mg/kg s.c. as single agent): robustly lowered blood glucose
- FGF1-induced reduction in glucose levels in mice overexpressing PDE4D3 (blood glucose levels; ob/ob mice with adAAV-PDE4D3, FGF1 0.5 mg/kg): greater reduction in glucose levels
- FGF1 glucose response in mice expressing the S44A mutant (blood glucose levels; ob/ob mice with adAAV-PDE4D3 S44A, FGF1 0.5 mg/kg): indistinguishable from control mice
- reduction in pyruvate carboxylase activity (pyruvate carboxylase): ~50%
- pHSL levels in gWAT [2]: decreased
- FGF1-induced phosphorylation of PDE4D3 in the S44A mutant (PDE4D; 3T3-L1 adipocytes infected with adAAV PDE4D3 S44A): lost
- S44 phosphorylation of PDE4D3 (PDE4D; 3T3-L1 cells overexpressing PDE4D3, absence and presence of isoproterenol): increased S44 phosphorylation
- PDE4D phosphorylation (PDE4D; isoproterenol-stimulated, FGF1 co-treatment 100 ng/ml): increased both the extent and duration of PDE4D phosphorylation
